Results from patent US9522914B2, “Azole derivative” (TAISHO PHARMACEUTICAL CO., LTD, priority 2011, dated 2016).

Key:
[1] = target: T1, Human V1b receptor (Homo sapiens (Human), UniProt P47901); test: Binding Test for V1b Receptor ([3H]AVP, crude membrane preparation of 293FT cells); conditions: inhibition of [3H]AVP binding (0.4 to 1 nmol/L), room temperature, 60 minutes
Method in brief: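 Crude membranes from 293FT cells transiently expressing human V1b, incubated with [3H]AVP (0.4 to 1 nmol/L) and compound (0.01 nmol/L–1 μmol/L final) in Tris pH 7.4 with MgCl2 and 0.1% BSA, 60 min at room temperature. Bound label collected by filtration. Nonspecific binding defined with unlabeled AVP; IC50 from dose-response curve.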

[2] = target: T1, Human V1b receptor; test: Measurement of V1b Receptor Antagonistic Activity (AVP-induced Fluo-4 fluorescence in CHO cells, FDSS); assay type: cell-based; conditions: inhibition of the response to AVP 2.5 nmol/L, CHO cells stably expressing human V1b receptor
Protocol: Measurement of V1b Receptor Antagonistic Activity
CHO cells (ATCC) so modified as to express human V1b receptor in a stable manner were cultured in Ham's F-12 medium (containing 10% FBS and 0.5 mg/mL Geneticin). On the day before the test, seeding was conducted at a density of 20,000 cells/well in a 96-well poly-D-lysine coated black plate. On the day of the test, the culture medium was removed, and a loading solution (1×HBSS, 10 mmol/L HEPES, 0.1% bovine serum albumin, 1.25 mmol/L Probenecid, 0.02% Pluronic F-127, 1.5 μmol/L Fluo-4-AM, pH 7.4) was added to each well, followed by incubation in a CO2 incubator for an hour. After the incubation, the loading solution was removed. A test solution (1×HBSS, 10 mmol/L HEPES, 0.1% bovine serum albumin, 1.25 mmol/L Probenecid, pH 7.4) containing any one of test compounds was added to wells, followed by incubation in a CO2 incubator for 30 minutes. The test compound was serially diluted with DMSO so that it would have final concentrations of 0.1 nmol/L to […] at the time of assaying. After the incubation, fluorescence intensity levels were measured and AVP added by means of FDSS (Hamamatsu Photonics K.K.); AVP was added to give a final concentration of 2.5 nmol/L at the time of assaying. […] The fluorescence level in a well to which neither test compound nor AVP was added was defined as 0%, and the fluorescence level in a well to which only AVP was added and no test compound was added was defined as 100%. A dose-response curve was plotted from fluorescence levels after the addition of AVP in the presence of a test compound at various concentrations, and the 50% inhibitory concentration (IC50 value) of the compound was calculated.

T1 sequence (P47901 whole entry): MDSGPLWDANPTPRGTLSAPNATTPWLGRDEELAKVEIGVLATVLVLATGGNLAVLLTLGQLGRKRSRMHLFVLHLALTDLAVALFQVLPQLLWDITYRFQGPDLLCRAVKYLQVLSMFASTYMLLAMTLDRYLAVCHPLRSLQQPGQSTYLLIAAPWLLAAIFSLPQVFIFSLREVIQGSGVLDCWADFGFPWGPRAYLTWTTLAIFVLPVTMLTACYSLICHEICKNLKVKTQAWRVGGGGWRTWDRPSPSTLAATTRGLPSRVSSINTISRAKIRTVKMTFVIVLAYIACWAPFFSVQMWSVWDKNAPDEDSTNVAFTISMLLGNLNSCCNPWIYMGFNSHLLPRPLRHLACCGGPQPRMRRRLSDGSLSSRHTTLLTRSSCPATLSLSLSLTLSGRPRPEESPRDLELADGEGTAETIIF

SMILES | IC50 [1] [nM] | IC50 [2] [nM]
CC(C)NC(=O)Cc1nn(-c2ccc(CCN3CCOCC3)cc2)c(=O)n1-c1cccc(Cl)c1 [Example D-01, 2-[4-(3-chlorophenyl)-1-{4-[2-(morpholin-4-yl)ethyl]phenyl}-5-oxo-4,5-dihydro-1H-1,2,4-triazol-3-yl]-N-(propan-2-yl)acetamide] | 15 | 21
CC(C)NC(=O)Cc1nn(-c2ccc(CCN3CCCCC3)cc2)c(=O)n1-c1cccc(Cl)c1 [Example D-46, 2-[4-(3-chlorophenyl)-5-oxo-1-{4-[2-(piperidin-1-yl)ethyl]phenyl}-4,5-dihydro-1H-1,2,4-triazol-3-yl]-N-(propan-2-yl)acetamide] | 10 to 100 | 
CC(C)NC(=O)Cn1cc(-n2ccc(CCN3CCOCC3)cc2=O)nc1-c1cccc(Cl)c1 [Example A-45, 2-[2-(3-chlorophenyl)-4-{4-[2-(morpholin-4-yl)ethyl]-2-oxopyridin-1(2H)-yl}-1H-imidazol-1-yl]-N-(propan-2-yl)acetamide] | 34 | 
CC(C)NC(=O)Cc1nn(-c2ccc(CCN3CCSCC3)cc2)c(=O)n1-c1cccc(Cl)c1 [Example D-48, 2-[4-(3-chlorophenyl)-5-oxo-1-{4-[2-(thiomorpholin-4-yl)ethyl]phenyl}-4,5-dihydro-1H-1,2,4-triazol-3-yl]-N-(propan-2-yl)acetamide] | 10 to 100 | 
CC(C)NC(=O)Cc1nn(-c2ccc(CC(C)N3C4CCC3COC4)cc2)c(=O)n1-c1ccc(F)c(Cl)c1 [Example D-36, 2-[4-(3-chloro-4-fluorophenyl)-1-{4-[2-(3-oxa-8-azabicyclo[3.2.1]oct-8-yl)propyl]phenyl}-5-oxo-4,5-dihydro-1H-1,2,4-triazol-3-yl]-N-(propan-2-yl)acetamide] | 0.61 | 
COc1cc(-c2nc(-c3ccc(CCN4CCCC(OC)C4)cc3)cn2CC(=O)NC(C)C)ccc1F (stereo not drawn) [Example A-18, 2-[2-(4-fluoro-3-methoxyphenyl)-4-{4-[2-(3-methoxypiperidin-1-yl)ethyl]phenyl}-1H-imidazol-1-yl]-N-(propan-2-yl)acetamide] | 19 | 
COc1cccc(-c2nc(-c3ccc(CCN4CCCCC4)cc3)cn2CC(=O)NC(C)C)n1 [Example A-28, 2-[2-(6-methoxypyridin-2-yl)-4-{4-[2-(piperidin-1-yl)ethyl]phenyl}-1H-imidazol-1-yl]-N-(propan-2-yl)acetamide] | 10 to 100 | 
COc1cc(-c2nc(-c3ccc(CCN4CCC(OC)C4)cc3)cn2CC(=O)NC(C)C)ccc1F (stereo not drawn) [Example A-17, 2-[2-(4-fluoro-3-methoxyphenyl)-4-{4-[2-(3-methoxypyrrolidin-1-yl)ethyl]phenyl}-1H-imidazol-1-yl]-N-(propan-2-yl)acetamide] | 10 to 100 | 
COc1cc(-c2nc(-c3ccc(CCN4CCOCC4)cc3)cn2CC(=O)NC(C)C)ccc1F [Example A-10, 2-[2-(4-fluoro-3-methoxyphenyl)-4-{4-[2-(morpholin-4-yl)ethyl]phenyl}1H-imidazol-1-yl]-N-(propan-2-yl)acetamide] | 3.7 | 
COc1cc(-n2c(CC(=O)NC(C)C)nn(-c3ccc(CCN4C5CCC4COC5)cc3)c2=O)ccc1F [Example D-37, 2-[4-(4-fluoro-3-methoxyphenyl)-1-{4-[2-(3-oxa-8-azabicyclo[3.2.1]oct-8-yl)ethyl]phenyl}-5-oxo-4,5-dihydro-1H-1,2,4-triazol-3-yl]-N-(propan-2-yl)acetamide] | 12 | 
COc1cccc(-c2nc(-c3ccc(CCN4CCC(C(N)=O)CC4)cc3)nn2CC(=O)NC(C)C)c1 [Example B-34, 1-[2-(4-{5-(3-methoxyphenyl)-1-[2-oxo-2-(propan-2-ylamino)ethyl]-1H-1,2,4-triazol-3-yl}phenyl)ethyl]piperidine-4-carboxamide] | 100 to 1000 | 
COc1cccc(-c2nc(-c3ccc(CCN4CCOCC4)c(F)c3)nn2CC(=O)NC(C)C)c1 [Example B-19, 2-[3-{3-fluoro-4-[2-(morpholin-4-yl)ethyl]phenyl}-5-(3-methoxyphenyl)-1H-1,2,4-triazol-1-yl]-N-(propan-2-yl)acetamide] | 6.9 | 
CC(C)NC(=O)Cc1nn(-c2ccc(CCN3CC=CCC3)cc2)c(=O)n1-c1cccc(Cl)c1 [Example D-47, 2-[4-(3-chlorophenyl)-1-{4-[2-(3,6-dihydropyridin-1(2H)-yl)ethyl]phenyl}-5-oxo-4,5-dihydro-1H-1,2,4-triazol-3-yl]-N-(propan-2-yl)acetamide] | 100 to 1000 | 
COc1cc(-c2nc(-c3ccc(CCN4CCC(OC)CC4)cc3)cn2CC(=O)NC(C)C)ccc1F [Example A-24, 2-[2-(4-fluoro-3-methoxyphenyl)-4-{4-[2-(4-methoxypiperidin-1-yl)ethyl]phenyl}-1H-imidazol-1-yl]-N-(propan-2-yl)acetamide] | 10 to 100 | 
CC(C)(C)NC(=O)Cc1nn(-c2ccc(CCN3C4CCC3COC4)cc2)c(=O)n1-c1ccc(F)c(Cl)c1 [Example D-31, N-tert-butyl-2-[4-(3-chloro-4-fluorophenyl)-1-{4-[2-(3-oxa-8-azabicyclo[3.2.1]oct-8-yl)ethyl]phenyl}-5-oxo-4,5-dihydro-1H-1,2,4-triazol-3-yl]acetamide] | 2.9 | 
CC(C)NC(=O)Cc1nn(-c2ccc(CCN3CCC(C)(O)CC3)cc2)c(=O)n1-c1cccc(Cl)c1 [Example D-55, 2-[4-(3-chlorophenyl)-1-{4-[2-(4-hydroxy-4-methylpiperidin-1-yl)ethyl]phenyl}-5-oxo-4,5-dihydro-1H-1,2,4-triazol-3-yl]-N-(propan-2-yl)acetamide] | 100 to 1000 | 
CC(C)NC(=O)Cc1nn(-c2ccc(CCN3C4CCC3COC4)cn2)c(=O)n1-c1cccc(Cl)c1 [Example D-02, 2-[4-(3-chlorophenyl)-1-{5-[2-(3-oxa-8-azabicyclo[3.2.1]oct-8-yl)ethyl]pyridin-2-yl}-5-oxo-4,5-dihydro-1H-1,2,4-triazol-3-yl]-N-(propan-2-yl)acetamide] | 10 to 100 | 
COc1cc(-n2c(CC(=O)NC(C)(C)C)nn(-c3ccc(CCN4C5CCC4COC5)cc3)c2=O)ccc1F [Example D-10, N-tert-butyl-2-[4-(4-fluoro-3-methoxyphenyl)-1-{4-[2-(3-oxa-8-azabicyclo[3.2.1]oct-8-yl)ethyl]phenyl}-5-oxo-4,5-dihydro-1H-1,2,4-triazol-3-yl]acetamide] | 7.1 | 
COc1cc(-c2nc(-c3ccc(CCN4CCC(C)C4)cc3)cn2CC(=O)NC(C)C)ccc1F (stereo not drawn) [Example A-21, 2-[2-(4-fluoro-3-methoxyphenyl)-4-{4-[2-(3-methylpyrrolidin-1-yl)ethyl]phenyl}-1H-imidazol-1-yl]-N-(propan-2-yl)acetamide] | 3.2 | 
COc1cccc(-c2nc(-c3ccc(CCN4CCC(C)CC4)cc3)nn2CC(=O)NC(C)C)c1 [Example B-23, 2-[5-(3-methoxyphenyl)-3-{4-[2-(4-methylpiperidin-1-yl)ethyl]phenyl}-1H-1,2,4-triazol-1-yl]-N-(propan-2-yl)acetamide] | 10 to 100 | 
CC(C)NC(=O)Cn1cc(-c2cccc(OCCN3CCCCC3)c2)nc1-c1cccc(Cl)c1 [Example A-34, 2-[2-(3-chlorophenyl)-4-{3-[2-(piperidin-1-yl)ethoxy]phenyl}-1H-imidazol-1-yl]-N-(propan-2-yl)acetamide] | 100 to 1000 | 
CC(C)NC(=O)Cc1cn(-c2ccc(CCN3CCCCC3)cc2)nc1-c1cccc(Cl)c1 [Example C-02, 2-[3-(3-chlorophenyl)-1-{4-[2-(piperidin-1-yl)ethyl]phenyl}-1H-pyrazol-4-yl]-N-(propan-2-yl)acetamide] | 13 | 
COc1cccc(-n2c(CC(=O)NC(C)(C)C)nn(-c3ccc(CCN4CCOCC4)cc3)c2=O)c1 [Example D-06, N-tert-butyl-2-[4-(3-methoxyphenyl)-1-{4-[2-(morpholin-4-yl)ethyl]phenyl}-5-oxo-4,5-dihydro-1H-1,2,4-triazol-3-yl]acetamide] | 4.6 | 
CC(C)NC(=O)Cn1nc(-c2ccc(CCN3CCOCC3)cn2)nc1-c1ccc(F)c(Cl)c1 [Example B-12, 2-[5-(3-chloro-4-fluorophenyl)-3-{5-[2-(morpholin-4-yl)ethyl]pyridin-2-yl}-1H-1,2,4-triazol-1-yl]-N-(propan-2-yl)acetamide] | 6.3 | 
CC(C)NC(=O)Cn1cc(-c2ccc(CCN3CCOCC3)cc2F)nc1-c1cccc(Cl)c1 [Example A-43, 2-[2-(3-chlorophenyl)-4-{2-fluoro-4-[2-(morpholin-4-yl)ethyl]phenyl}-1H-imidazol-1-yl]-N-(propan-2-yl)acetamide] | 0.49 | 
CC(C)NC(=O)Cc1nn(-c2ccc(CCN3CCC(F)(F)CC3)cc2)c(=O)n1-c1cccc(Cl)c1 [Example D-58, 2-[4-(3-chlorophenyl)-1-{4-[2-(4,4-difluoropiperidin-1-yl)ethyl]phenyl}-5-oxo-4,5-dihydro-1H-1,2,4-triazol-3-yl]-N-(propan-2-yl)acetamide] | 10 to 100 | 
